From ChEMBL document CHEMBL1129725, “Synthesis and antitumor activity of 7-substituted 20(RS)-camptothecin analogues” (Bioorg Med Chem Lett, 1996)

Columns and labels:
Assay type in all cases: functional, cell-based
DLD-1 = assay: Cytotoxicity against DLD-1 human tumor cell lines
[1] = tested on: KATO III stomach cancer cell line; assay: Cytotoxicity against KATO-III human tumor cell lines
L1210 = assay: Cytotoxicity against L1210 tumor cell lines in mice; conditions: Mus musculus
A 172 = assay: Cytotoxicity against A-172 human tumor cell lines
Caov-3 cell line = assay: Cytotoxicity against CAOV-3 human tumor cell lines

SMILES	IC50 (DLD-1)	IC50 [1]	IC50 (L1210)	IC50 (A 172)	IC50 (Caov-3 cell line)
CCC1(O)C(=O)OCc2c1cc1n(c2=O)Cc2c-1nc1ccccc1c2CCNCCO (stereo not given)	8.79 µM	47.8 µM	13 µM	23.3 µM	4.63 µM
CCN(CCc1c2c(nc3cc4c(cc13)OCO4)-c1cc3c(c(=O)n1C2)COC(=O)C3(O)CC)C(=O)OCc1ccccc1 (stereo not given)	24.2 µM	23.1 µM	3.52 µM	2.83 µM	1.74 µM
CCC1(O)C(=O)OCc2c1cc1n(c2=O)Cc2c-1nc1ccccc1c2CCN1CCOCC1 (stereo not given)	> 100 µM	82 µM	> 100 µM	81.8 µM	42.2 µM
CCC1(O)C(=O)OCc2c1cc1n(c2=O)Cc2c-1nc1ccccc1c2CCN(Cc1ccccc1)C(=O)OCc1ccccc1 (stereo not given)	1.06 µM	14 µM	0.7 µM	1.18 µM	1.97 µM
CCC1(O)C(=O)OCc2c1cc1n(c2=O)Cc2c-1nc1ccccc1c2CCNCc1ccccc1 (stereo not given)	0.31 µM	0.85 µM	4.03 µM	0.28 µM	0.17 µM
CCC1(O)C(=O)OCc2c1cc1n(c2=O)Cc2c-1nc1ccccc1c2CCN(CCOC(C)=O)C(=O)OCc1ccccc1 (stereo not given)	15.8 µM	16.6 µM	9.08 µM	18.6 µM	4.48 µM
CCC1(O)C(=O)OCc2c1cc1n(c2=O)Cc2c-1nc1ccccc1c2CCN1CCCC1 (stereo not given)	> 100 µM	> 100 µM	> 100 µM	> 100 µM	> 100 µM
CCCN(CCc1c2c(nc3ccccc13)-c1cc3c(c(=O)n1C2)COC(=O)C3(O)CC)C(=O)OCc1ccccc1 (stereo not given)	0.55 µM	0.51 µM	1.09 µM	2.33 µM	0.14 µM
CCNCCc1c2c(nc3ccccc13)-c1cc3c(c(=O)n1C2)COC(=O)C3(O)CC (stereo not given)	0.44 µM	0.36 µM	0.64 µM	0.085 µM	0.2 µM
CCC1(O)C(=O)OCc2c1cc1n(c2=O)Cc2c-1nc1ccccc1c2CCN(C(=O)OCc1ccccc1)C(C)C (stereo not given)	1.83 µM	1.85 µM	1.29 µM	0.95 µM	0.041 µM
CC[C@@]1(O)C(=O)OCc2c1cc1n(c2=O)Cc2cc3ccccc3nc2-1 [CAMPTOTHECIN]	0.21 µM	1.17 µM	0.18 µM	0.14 µM	0.03 µM
CCC1(O)C(=O)OCc2c1cc1n(c2=O)Cc2c-1nc1ccccc1c2CCN1CCCCC1 (stereo not given)	> 100 µM	> 100 µM	> 100 µM	51.1 µM	> 100 µM
CCC1(O)C(=O)OCc2c1cc1n(c2=O)Cc2c-1nc1ccccc1c2CCNC(C)C (stereo not given)	0.11 µM	0.04 µM	0.13 µM	0.11 µM	0.041 µM
CCC1(O)C(=O)OCc2c1cc1n(c2=O)Cc2c-1nc1ccccc1c2CCNCCOC(C)=O (stereo not given)	3.48 µM	0.82 µM	4.36 µM	0.74 µM	0.88 µM
CCC1(O)C(=O)OCc2c1cc1n(c2=O)Cc2c-1nc1ccccc1c2CCN(CCO)C(=O)OCc1ccccc1 (stereo not given)	9.72 µM	13.8 µM	2.9 µM	1.92 µM	1.14 µM
